The values that follow come from US12583839B2, “PD-L1 antagonist compound” (ADLAI NORTYE BIOPHARMA CO., LTD., priority 2019, dated 2026).

The target in this test is T1, PD-1/PD-L1 (Homo sapiens, UniProt Q9NZQ7).
T1 construct: 60535 (PD-1/NFAT-Reporter-Jurkat); host or cells: CHO cells expressing PD-L1; Jurkat cells expressing PD-1
The experiment in a line: Detection of biological activity of PD-1/PD-L1 signaling inhibition at the cellular level (NFAT luciferase reporter, PD-1/NFAT-Reporter-Jurkat cells co-cultured with TCR activator/PD-L1-CHO cells). Type of test: cell-based. Conditions: PD-1/NFAT-Reporter-Jurkat + TCR activator/PD-L1-CHO co-culture, 6 hours; Atezolizumab as positive control. An outline of the steps:
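CHO cells expressing PD-L1 and a TCR activator were seeded overnight at 37° C, pre-treated with compound for 30 minutes, then co-cultured 6 hours with Jurkat cells carrying PD-1 and an NFAT-luciferase reporter. Luminescence was read, and inhibition % was normalised between 0.1% DMSO and about 10 nM atezolizumab controls.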
For orientation: A reporter such as luciferase makes a cellular process visible.

Each structure is given as a SMILES string.

T1 sequence (Q9NZQ7 19-290): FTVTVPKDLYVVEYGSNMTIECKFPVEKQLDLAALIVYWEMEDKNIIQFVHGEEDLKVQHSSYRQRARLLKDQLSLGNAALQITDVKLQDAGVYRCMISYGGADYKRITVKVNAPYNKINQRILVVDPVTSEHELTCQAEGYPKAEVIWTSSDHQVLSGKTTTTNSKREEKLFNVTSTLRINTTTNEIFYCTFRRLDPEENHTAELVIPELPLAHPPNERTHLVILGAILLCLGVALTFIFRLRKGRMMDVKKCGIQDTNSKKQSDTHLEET

Consider `COc1cc(-c2cccc(-c3cccc4c3cnn4Cc3cc(OCC(N)=O)c(CN(C)C[C@H]4CC[C@H](C(=O)O)CC4)cc3Cl)c2Cl)ccc1CNC[C@@H]1CCC(=O)N1` [Compound 127], for which the EC50 (usually the midpoint of the concentration-response curve) stood at 160 nM. `COc1cc(-c2cccc(-c3cccc4c3cnn4Cc3cc(OCC(=O)O)c(CN(C)C[C@H]4CC[C@H](C(=O)O)CC4)cc3Cl)c2Cl)ccc1CNC[C@@H]1CCC(=O)N1` [Compound 128]: the EC50 came to 391 nM. Turning to `COc1cc(-c2cccc(-c3cccc4c3cnn4Cc3cc(OC)c(CN(C)[C@H]4CC[C@H](C(=O)NS(C)(=O)=O)CC4)cc3Cl)c2Cl)ccc1CNC[C@@H]1CCC(=O)N1` [Compound 129], the half-maximal effective concentration (EC50) is 29 nM. Turning to `COc1cc(Cn2ncc3c(-c4cccc(-c5cc(F)c(CNC[C@@H]6CCC(=O)N6)c(OC)c5)c4Cl)cccc32)c(Cl)cc1CN(C)C[C@H]1CC[C@H](CC(=O)O)CC1` [Compound 130], the EC50 was found to be 134 nM. For the molecule `COc1cc(Cn2ncc3c(-c4cccc(-c5cc(F)c(CNC[C@@H]6CCC(=O)N6)c(OC)c5)c4Cl)cccc32)c(Cl)cc1CN(C)[C@H]1CC[C@H](CCC(=O)O)CC1` [Compound 131], the EC50 worked out at 40 nM. `COc1cc(Cn2ncc3c(-c4cccc(-c5cc(F)c(CNC[C@@H]6CCC(=O)N6)c(OC)c5)c4Cl)cccc32)c(Cl)cc1CN(C)[C@H]1CC[C@H](/C=C/C(=O)O)CC1` [Compound 132]: the half-maximal effective concentration (EC50) stood at 23 nM. Take `COc1cc(Cn2ncc3c(-c4cccc(-c5ccc(CNC[C@@H]6CCC(=O)N6)c(OC)n5)c4Cl)cccc32)c(Cl)cc1CN(C)C12CCC(C(=O)O)(CC1)CC2` [Compound 133]: the concentration for a half-maximal effect (EC50) worked out at 81 nM. Consider `COc1cc(-c2cccc(-c3cccc4c3cnn4Cc3cc(OC[C@@H]4CCC(=O)N4)c(CN(C)C[C@H]4CC[C@H](C(=O)O)CC4)cc3Cl)c2Cl)ccc1CNC[C@@H]1CCC(=O)N1` [Compound 134], for which the EC50 was 68 nM.

As for `COc1cc(-c2cccc(-c3cccc4c3cnn4Cc3nc(OC)c(CN(C)C45CCC(C(=O)O)(CC4)CC5)cc3Cl)c2Cl)cc(F)c1CNC[C@@H]1CCC(=O)N1` [Compound 135], the EC50 is 25 nM. Take `COc1cc(Cn2ncc3c(-c4cccc(-c5cc(F)c(CNC[C@@H]6CCC(=O)N6)c(OC)c5)c4Cl)cccc32)c(Cl)cc1CN(C)C12CC(C(=O)O)(C1)C2` [Compound 136]: the EC50 stood at 240 nM. As to `COc1nc(-c2cccc(-c3cccc4c3cnn4Cc3nc(OC)c(CN(C)C45CCC(C(=O)O)(CC4)CC5)cc3Cl)c2Cl)ccc1CNC[C@@H]1CCC(=O)N1` [Compound 137], the EC50 was determined as 41 nM. For `COc1cc(Cn2ncc3c(-c4cccc(-c5cc(F)c(CNC[C@@H]6CCC(=O)N6)c(OC)c5)c4Cl)cccc32)c(C#N)cc1CN(C)[C@H]1C[C@H](C(=O)O)C1` [Compound 139], the EC50 was determined as 15 nM. For the molecule `COc1cc(Cn2ncc3c(-c4cccc(-c5cc(F)c(CNC[C@@H]6CCC(=O)N6)c(OC)c5)c4Cl)cccc32)c(C#N)cc1CN(C)[C@]12CC[C@@](C(=O)O)(CC1)CC2` [Compound 140], the EC50 amounted to 25 nM. For `COc1cc(Cn2ncc3c(-c4cccc(-c5cc(F)c(CNC[C@@H]6CCC(=O)N6)c(OC)c5)c4Cl)cccc32)c(C#N)cc1CN(C)[C@H]1CC[C@H](CC(=O)O)CC1` [Compound 141], the EC50 amounted to 40 nM. `COc1cc(Cn2ncc3c(-c4cccc(-c5cc(F)c(CNC[C@@H]6CCC(=O)N6)c(OC)c5)c4Cl)cccc32)c([N+](=O)[O-])cc1CN(C)[C@H]1CC[C@H](C(=O)O)CC1` [Compound 142]: the concentration for a half-maximal effect (EC50) stood at 37 nM. Take `COc1cc(Cn2ncc3c(-c4cccc(-c5cc(F)c(CNC[C@@H]6CCC(=O)N6)c(OC)c5)c4Cl)cccc32)c([N+](=O)[O-])cc1CN(C)[C@H]1C[C@H](C(=O)O)C1` [Compound 143]: the EC50 amounted to 31 nM. As for `COc1cc(Cn2ncc3c(-c4cccc(-c5cc(F)c(CNC[C@@H]6CCC(=O)N6)c(OC)c5)c4Cl)cccc32)c([N+](=O)[O-])cc1CN(C)[C@H]1CC[C@H](CC(=O)O)CC1` [Compound 144], the EC50 was 40 nM. For `COc1cc(Cn2ncc3c(-c4cccc(-c5cc(F)c(CNC[C@@H]6CCC(=O)N6)c(OC)c5)c4Cl)cccc32)c([N+](=O)[O-])cc1CN(C)C12CCC(C(=O)O)(CC1)CC2` [Compound 145], the EC50 was 51 nM.

Take `COc1cc(-c2cccc(-c3cccc4c3cnn4Cc3cc(OC)c(CN(C)C4CCC(CC(=O)O)CC4)cc3C(F)(F)F)c2Cl)ccc1CNC[C@@H]1CCC(=O)N1` (some centres unmarked) [Compound 146]: the EC50 was 28 nM. `COc1cc(Cn2ncc3c(-c4cccc(-c5cc(F)c(CNC[C@@H]6CCC(=O)N6)c(OC)c5)c4Cl)cccc32)c(C(F)(F)F)cc1CN(C)[C@H]1CC[C@H](CC(=O)O)CC1` [Compound 147]: the EC50 worked out at 32 nM.

In the case of `COc1cc(Cn2ncc3c(-c4cccc(-c5cc(F)c(CNC[C@@H]6CCC(=O)N6)c(OC)c5)c4Cl)cccc32)c(C(F)(F)F)cc1CN(C)[C@H]1CC[C@H](C(=O)O)CC1` [Compound 148], the half-maximal effective concentration (EC50) was found to be 34 nM.

In the case of `COc1cc(Cn2ncc3c(-c4cccc(-c5cc(F)c(CNC[C@@H]6CCC(=O)N6)c(OC)c5)c4Cl)cccc32)c(C(F)(F)F)cc1CN(C)[C@H]1C[C@H](C(=O)O)C1` [Compound 149], the EC50 is 28 nM.

Turning to `COc1cc(Cn2ncc3c(-c4cccc(-c5cc(F)c(CNC[C@@H]6CCC(=O)N6)c(OC)c5)c4Cl)cccc32)c(C(F)(F)F)cc1CN(C)C12CCC(C(=O)O)(CC1)CC2` [Compound 150], the EC50 worked out at 30 nM. For the molecule `COc1cc(-c2cccc(-c3cccc4c3cnn4Cc3nc(OC)c(CN(C)[C@H]4CC[C@H](C(=O)O)CC4)cc3Cl)c2Cl)ccc1CNC[C@@H]1CCC(=O)N1` [Compound 151], the EC50 amounted to 63 nM. For the molecule `COc1cc(Cn2ncc3c(-c4cccc(-c5ccc(CNC[C@@H]6CCC(=O)N6)c(OC)n5)c4Cl)cccc32)c(Cl)cc1CN(C)[C@H]1CC[C@H](C(=O)O)CC1` [Compound 152], the EC50 amounted to 56 nM. Turning to `COc1cc(-c2cccc(-c3cccc4c3cnn4Cc3cc(OC)c(CN(C)C4CCC(C(=O)O)CC4)cc3Cl)c2Cl)ccc1CNC[C@@H]1CCCC(=O)N1` (some centres unmarked) [Compound 153], the EC50 stood at 94 nM.

On to `COc1cc(-c2cccc(-c3c(Cl)ccc4c3cnn4Cc3cc(OC)c(CN[C@@H](CO)C(=O)O)cc3Cl)c2Cl)ccc1CNC[C@@H]1CCC(=O)N1` [Compound 154], for which the EC50 turned out to be 393 nM. In the case of `COc1cc(Cn2ncc3c(-c4cccc(-c5cc(Cl)c(CNC[C@@H]6CCC(=O)N6)c(OC)c5)c4Cl)cccc32)c(Cl)cc1CN(C)CC1CCC(C(=O)O)CC1` (some centres unmarked) [Compound 155], the EC50 is 145 nM. As to `COc1cc(Cn2ncc3c(-c4cccc(-c5ccc(CNC[C@@H]6CCC(=O)N6)c(OC)n5)c4Cl)cccc32)c(Cl)c(F)c1CN(C)C12CCC(C(=O)O)(CC1)CC2` [Compound 157], the EC50 came to 90 nM. Consider `COc1cc(-c2cccc(-c3ccc(Cl)c4c3cnn4Cc3cc(OC)c(CN[C@@H](CO)C(=O)O)cc3Cl)c2Cl)ccc1CNC[C@@H]1CCC(=O)N1` [Compound 158], for which the EC50 amounted to 1010 nM. Regarding `CCN(Cc1cc(Cl)c(Cn2ncc3c(-c4cccc(-c5cc(F)c(CNC[C@@H]6CCC(=O)N6)c(OC)c5)c4Cl)cccc32)cc1OC)C12CCC(C(=O)O)(CC1)CC2` [Compound 159], the EC50 is 37 nM.

In the case of `COc1cc(Cn2ncc3c(-c4cccc(-c5cc(F)c(CNC[C@@H]6CCC(=O)N6)c(OC)c5)c4Cl)cccc32)c(Cl)cc1CN(C)C12CCC(CC(=O)O)(CC1)CC2` [Compound 160], the EC50 is 46 nM.
